These results are taken from paper PMC6946680, “Modulation of brain cation-Cl^− cotransport via the SPAK kinase inhibitor ZT-1a” (Nature Communications, 2020).

Where “and” joins values, the source holds several entries; their conditions need not be identical. Equal entries are not always repeated.

What all share (assay type): cell-based, human
In one experiment the test system is KCC3 pThr991. Briefly: Immunoblot of KCC site 1 phosphorylation (KCC3 Thr991) in HEK-293 cells transfected with FLAG-KCC3. Background: A western blot detects proteins with antibodies after separation by electrophoresis.
The test system of another experiment is NKCC1 pThr203/207/212. Briefly: Immunoblot of NKCC1 p-Thr203/Thr207/Thr212 in HEK-293 cells. The protocol:
(§1) Band intensities were quantitated with ImageJ software. ***p < 0.001; **p < 0.01; *p < 0.05; ns, nonsignificant [by one-way ANOVA with post hoc testing (n = 6, error bars represent the mean ± SEM)].
(§2) Thirty-six hours post transfection, cells were stimulated with either control isotonic or hypotonic medium for a period of 30 min. […] Protein concentrations were determined using the Bradford method. Cells were treated with the indicated concentrations of the SPAK/OSR1 inhibitors.

The next experiment deals with KCC3 pThr1048. Briefly: Immunoblot of KCC site 2 phosphorylation (KCC3 Thr1048) in HEK-293 cells transfected with FLAG-KCC3.
Another experiment deals with SPAK pSer373. As to the kind of experiment: Immunoblot of SPAK/OSR1 p-Ser373/Ser325 in HEK-293 cells. The protocol:
as §1, §2

Where [1] appears, read: Hypotonic low Cl, compound concentration 1 (unit not given).
Where [2] appears, read: Hypotonic low Cl, compound concentration 3 (unit not given).
Where [3] appears, read: Hypotonic low Cl, compound concentration 10 (unit not given).
[4] abbreviates: Isotonic control, compound concentration 1 (unit not given).
[5] abbreviates: Isotonic control, compound concentration 3 (unit not given).
Where [6] appears, read: Isotonic control, compound concentration 10 (unit not given).

Take `Cc1cc(C(C#N)c2ccc(Cl)cc2)c(Cl)cc1NC(=O)c1ccccc1O` (centres unmarked) [ZT-1b]: the “Site-1 phospho / KCC” value in the experiment with KCC3 pThr991 (setting [1]) is 0.297 and 0.278 and 0.267 and 0.28; with KCC3 pThr991 (setting [2]) it was 0.255 and 0.247 and 0.261 and 0.237; with KCC3 pThr991 (setting [3]), 0.022 and 0.031 and 0.029 and 0.035; in the experiment on KCC3 pThr991 (setting [4]), 0.198 and 0.201 and 0.187 and 0.21; in the experiment with KCC3 pThr991 (setting [5]) it was 0.167 and 0.17 and 0.155 and 0.16; with KCC3 pThr991 (setting [6]), 0.095 and 0.121 and 0.114 and 0.104. For the same compound, the “pThrNKCC1 / NKCC1” value in the experiment on NKCC1 pThr203/207/212 (setting [1]) was 0.309 and 0.287 and 0.264 and 0.27; in the experiment with NKCC1 pThr203/207/212 (setting [2]), 0.122 and 0.114 and 0.1313 and 0.117; in the experiment on NKCC1 pThr203/207/212 (setting [3]), 0.011 and 0.0109 and 0.016 and 0.013; in the experiment with NKCC1 pThr203/207/212 (setting [4]), 0.127 and 0.118 and 0.126 and 0.123; with NKCC1 pThr203/207/212 (setting [5]), 0.034 and 0.041 and 0.048 and 0.043; in the experiment on NKCC1 pThr203/207/212 (setting [6]), 0.009 and 0.007 and 0.005 and 0.006. Moreover, the “Site-2 phospho / KCC” value is 0.289 and 0.263 and 0.271 and 0.25 in the experiment on KCC3 pThr1048 (setting [1]); 0.156 and 0.183 and 0.172 and 0.162 in the experiment on KCC3 pThr1048 (setting [2]); 0.033 and 0.041 and 0.022 and 0.031 with KCC3 pThr1048 (setting [3]); 0.184 and 0.212 and 0.196 and 0.205 with KCC3 pThr1048 (setting [4]); 0.112 and 0.132 and 0.126 and 0.115 in the experiment on KCC3 pThr1048 (setting [5]); 0.042 and 0.039 and 0.061 and 0.053 in the experiment with KCC3 pThr1048 (setting [6]). Besides, the “pSer373 / SPAK” value was 0.301 and 0.286 and 0.291 and 0.316 in the experiment with SPAK pSer373 (setting [1]); 0.183 and 0.156 and 0.163 and 0.175 in the experiment on SPAK pSer373 (setting [2]); 0.078 and 0.061 and 0.055 and 0.065 in the experiment with SPAK pSer373 (setting [3]); 0.103 and 0.127 and 0.137 and 0.117 in the experiment on SPAK pSer373 (setting [4]); 0.087 and 0.09 and 0.06 and 0.076 in the experiment on SPAK pSer373 (setting [5]); 0.055 and 0.039 and 0.041 and 0.047 in the experiment with SPAK pSer373 (setting [6]).

For `Cc1cc(C(C#N)c2ccc(Cl)cc2)c(Cl)cc1NC(=O)c1cccc(F)c1O` (centres unmarked) [ZT-1h], the “Site-1 phospho / KCC” value in the experiment on KCC3 pThr991 (setting [1]) is 0.488 and 0.427 and 0.359 and 0.502; in the experiment with KCC3 pThr991 (setting [2]), 0.412 and 0.376 and 0.392 and 0.431; with KCC3 pThr991 (setting [3]), 0.165 and 0.187 and 0.122 and 0.203; in the experiment with KCC3 pThr991 (setting [4]), 0.455 and 0.431 and 0.5108 and 0.482; in the experiment with KCC3 pThr991 (setting [5]), 0.419 and 0.386 and 0.354 and 0.437; with KCC3 pThr991 (setting [6]), 0.215 and 0.201 and 0.251 and 0.276. The “pThrNKCC1 / NKCC1” value with NKCC1 pThr203/207/212 (setting [1]) was 0.317 and 0.294 and 0.283 and 0.306; with NKCC1 pThr203/207/212 (setting [2]), 0.131 and 0.156 and 0.1342 and 0.125; in the experiment on NKCC1 pThr203/207/212 (setting [4]), 0.112 and 0.132 and 0.122 and 0.109; in the experiment on NKCC1 pThr203/207/212 (setting [5]), 0.022 and 0.043 and 0.035 and 0.028; with NKCC1 pThr203/207/212 (setting [6]), 0.008 and 0.006 and 0.004 and 0.005. Further, the “Site-2 phospho / KCC” value with KCC3 pThr1048 (setting [1]) was 0.281 and 0.258 and 0.279 and 0.266; in the experiment on KCC3 pThr1048 (setting [2]) it was 0.143 and 0.176 and 0.159 and 0.132; in the experiment on KCC3 pThr1048 (setting [3]) it was 0.021 and 0.042 and 0.035 and 0.025; in the experiment with KCC3 pThr1048 (setting [4]), 0.271 and 0.243 and 0.219 and 0.263; in the experiment on KCC3 pThr1048 (setting [5]) it was 0.186 and 0.176 and 0.131 and 0.159; in the experiment with KCC3 pThr1048 (setting [6]) it was 0.052 and 0.041 and 0.03 and 0.048. For the same compound, the “pSer373 / SPAK” value is 0.297 and 0.248 and 0.275 and 0.253 in the experiment on SPAK pSer373 (setting [1]); 0.179 and 0.135 and 0.168 and 0.158 in the experiment on SPAK pSer373 (setting [2]); 0.066 and 0.034 and 0.051 and 0.049 in the experiment on SPAK pSer373 (setting [3]); 0.112 and 0.124 and 0.132 and 0.106 in the experiment with SPAK pSer373 (setting [4]); 0.08 and 0.07 and 0.064 and 0.084 with SPAK pSer373 (setting [5]); 0.034 and 0.025 and 0.043 and 0.026 with SPAK pSer373 (setting [6]).
